US5208032A, “Increasing the growth of turkeys using implant of 19-nortestosterone” (Rutgers, The State University of New Jersey, priority 1992, dated 1993)

How the values were obtained:
[1] = Growth promotion and feed efficiency in turkeys (summary in words); type: in vivo
Method: A presently preferred dosage in the form of such a subcutaneous implant is at least about 20 mg, with a dosage of about 50 mg being highly suitable. It has been found suitable to administer the 19-nortestosterone subcutaneously, for example, below the ear of the turkey, using conventional implanting devices. The dosage can be administered in the form of an implant device which releases the 19-nortestosterone slowly in a desired constant rate, over a period of time such a about 21 days or more. Desirably, the implant can be in the form of a capsule enveloping the 19-nortestosterone which provides the desired slow, constant release or in the form of a polymer mass pellet having encapsulated or dispersed therein 19-nortestosterone so as to permit by diffusion or slow dissolution release subcutaneously and subsequent systemic absorption. It has been found suitably to use silicone rubber as a polymeric encapsulating material.
It is a natural compound.

[2] = Comparison of effects on growth in intact male and female White Leghorn chickens (Study II, Table 1); type: in vivo; conditions: for 6-week Body Weight Change / 12-week Body Weight Change / 12-week Shank-Toe Length Change: 1.0-cm implant, vs cholesterol control, (decrease); for 6-week Body Weight / 12-week Body Weight (final) / 12-week Shank-Toe Length: 1.0-cm s.c. implant
Method: The single comb White Leghorn strain (Dekalb XL) of chicken (Avian Services, Frenchtown, N.J.) was used in all studies. Chicks were obtained on the day following hatch and were then maintained in a well ventilated, temperature- and humidity-controlled animal room. Chicks were housed in temperature-controlled (access to small brood chambers--32° to 35° C.), wire-floored, 5-tier brooder batteries (measuring 0.74 W×1.55 L×0.27 H m per tier) until termination of respective studies. A 12 hour light:12 hour dark photoperiod was maintained at all times within the animal room. Feed and water were available ad libitum, with a standard commercial diet (Agway; Bordentown, N.J.), chick starter mash, fed to chicks 1 to 42 days of age, and then from 43 to 84 days, grower mash was provided (manufacturer statement on ration compositions are shown in Table 2).
In all studies, chicks were rank-ordered by weight, wing-banded and distributed into treatment groups of equal body weights at 14 days of age. Excluding Study I, e.g., in which male, female and castrate male comparisons were made, all control groups were implanted with 1.0-cm length cholesterol-filled Silastic polysiloxane implants (i.e., steroid surface exposure of 1.0-cm; actual length was 2.0-cm with 1/2 cm wood dowel plugs placed at each end of implant). The remaining treatment groups consisted of chicks (male, female or castrated male) implanted with either testosterone-, 5-alpha-DHT-, 5-beta-DHT-, estradiol-17-beta-, or 19-nortestosterone-filled Silastic polysiloxane implants with steriod surface exposures of either 0.3, 1.0 or 3.0 cm in length. Steroid implants were prepared by manually packing respective crystalline steroids (Steraloids; Wilton, N.H.) into Silastic Medical Grade tubing (1.57 mm i.d.; Dow Corning) (Smith et al., 1977). The amounts of steroid contained in the implants were as follows (mean±SEM of 20 randomly chosen implants, 5 for each steroid): 2.6±0.2 mg (0.3-cm), 8.9±0.4 mg (1.0-cm), and 29.2±0.7 mg 3.0-cm). At the time of group assignment, implants were placed in the subcutaneous (S.C.) layer of skin behind the neck. Supplemental steroid implants (containing doses of steroids equivalent to those of the initial implants) were implanted at 6 and 10 weeks of age, without removal of prior implants, to ensure adequate androgen replacement with increasing growth. Cage floors and fecal collection trays were checked for 2 consecutive days following each implantation session to ensure completeness of procedure. […] An outline of individual studies along with experimental treatments (i.e., type and dose of steroid) and number of birds per treatment group is given in Table 3.
Body weight and shank-toe length (King, 1969; combined length of metatarsus and longest toe which is an estimate of bone growth) were measured at weekly (or biweekly in Study I) intervals from the beginning through the end of each study. At the termination of studies I (12 weeks of age), III (12 weeks of age), IV (12 weeks of age) and V (6 weeks of age), several organs were excised and immediately weighed at necropsy. Relative tissue weights (percent of final body weight) and body weight minus [comb plus wattle weights] (i.e., final adjusted body weight) were also calculated. Excluding Study I, biweekly blood samples were obtained by venipuncture of the wing vein from the same individual birds for respective treatments. After centrifugation of whole blood, plasma was removed and stored at -20° C. until hormone assays were performed.
^a Steroid treatments entailed the subcutaneous implantation (between
the shoulders) of 1.0 cm length, silastic implants (crystalline steroids
at 2, 6 and 10 weeks of age.)

testosterone antiserum = conditions: manufacturer statement; cited from earlier work

SMILES	results compared with testosterone in turkeys ([1]; Table IV and Table V)	relative amount of fat mass ([1]; turkey carcass)	growth rate and feed efficiency ([1]; turkeys)	muscle mass ([1]; turkeys)	results in turkeys compared with 19-nortestosterone in chickens ([1]; vs chickens (Table III))	6-week Body Weight Change ([2]; intact female) [%]	12-week Body Weight Change ([2]; intact female) [%]	12-week Shank-Toe Length Change ([2]; intact female) [%]	6-week Body Weight ([2]; intact female) [g]	12-week Body Weight (final) ([2]; intact female) [g]	12-week Shank-Toe Length ([2]; intact female) [cm]	6-week Body Weight Change ([2]; intact male) [%]	12-week Body Weight Change ([2]; intact male) [%]	12-week Shank-Toe Length Change ([2]; intact male) [%]	6-week Body Weight ([2]; intact male) [g]	12-week Body Weight (final) ([2]; intact male) [g]	12-week Shank-Toe Length ([2]; intact male) [cm]	results when used instead of 19-nortestosterone ([1]; turkeys)	cross-reaction with Immuchem testosterone antiserum (testosterone antiserum) [%]
C[C@]12CC[C@H]3[C@@H](CCC4=CC(=O)CC[C@@H]43)[C@@H]1CC[C@@H]2O [19-Nortestosterone, 19-nortestosterone]	unexpectedly superior advantages	a lower relative amount of fat mass	an increase in growth rate and feed efficiency	an increase in muscle mass	unexpectedly superior results														
C[C@]12CCC(=O)C[C@@H]1CC[C@@H]1[C@@H]2CC[C@]2(C)[C@@H](O)CC[C@@H]12 [5-alpha-DHT, 5-alpha-dihydrotestosterone]						9.9	6.5	3.3	529 ± 12	1051 ± 15	14.6 ± 0.12	17.2	16.1	7.0	535 ± 27	1171 ± 50	15.9 ± 0.24	unexpectedly beneficial results	7.8
C[C@]12CC[C@H]3[C@@H](CCC4=CC(=O)CC[C@@]43C)[C@@H]1CC[C@@H]2O [Testosterone, testosterone]						5.8	5.1	2.6	553 ± 11	1067 ± 22	14.7 ± 0.09	9.4	8.6	3.1	585 ± 13	1275 ± 27	16.5 ± 0.17		100
